Data as given in US11117898B2, “Pyrazolo-heteroaryl derivative, preparation method and medical use thereof” (Jiangsu Hengrui Medicine Co., Ltd., priority 2016, dated 2021).

Key:
human TLR7 = human TLR7 (Homo sapiens (Human), UniProt Q9NYK1); assay: Agonistic activity on human TLR7 in HEK-Blue hTLR7 stably transfected cells; assay type: cell-based; settings: for EC50: OD 620 nm
Procedure: The activation effect of the compounds of the present invention on the hTLR7 protein expressed by the HEK-Blue™ hTLR7 stably transfected cells was determined by the following experimental method:
(§1) A bag of HEK-Blue detection dry powder was dissolved in 50 ml of water free of endotoxin, and the solution was then placed in an incubator at 37° C. for 10 minutes followed by sterile filtration to prepare a HEK-Blue detection medium. The compound was firstly formulated into a 20 mM stock solution, then diluted with pure DMSO to a maximum concentration of 6×10^6 nM, and a total of 10 points were obtained by a 3-fold gradient dilution.
(§2) The above formulated compound was firstly diluted 20-fold with the medium, then 20 μl of the diluted compound were added to each well. The supernate was removed from the HEK-Blue™ hTLR7 cells, to which 2-5 ml of pre-warmed PBS were then added. The cells were placed in an incubator for 1-2 minutes, gently pipetted, and counted by trypan blue staining. The cells were re-suspended in the HEK-Blue detection medium to adjust the concentration to 2.2×10^5 cells/ml. 180 μl of cells were added to the above 96-well plate already added with 20 μl of the compounds, and incubated at 37° C. for 6-16 hours.
The activation effect of the compounds of the present invention on human TLR7 can be determined by the above test, and the obtained EC50 values are shown in Table 1.

PBMC = assay: Stimulation of the secretion of IFN-α from peripheral blood mononuclear cells (PBMC); assay type: cell-based, human; settings: minimal effective concentration: lowest concentration giving cytokine level at least 3 times the minimum detection limit; 24 hours incubation
Procedure: The ability of the compounds of the present invention to stimulate the secretion of IFN-α from PBMC was determined by the following experimental method:
The compound was diluted with pure DMSO to a maximum concentration of 5 mM, and a total of 9 points were obtained by a 4-fold gradient dilution. 4 μl of the compound were then added to 196 μl of RMPI 1640 medium containing 10% FBS and mixed well. 50 μl of the mixture were taken from each well and added to a new 96-well plate.
All reagents were equilibrated to room temperature. 60 ml of blood and PBS+2% FBS were added to a 250 ml culture flask, gently pipetted, mixed well and diluted. 15 ml of lymphocyte separation solution Ficoll-Paque PREMIUM and then 30 ml of diluted blood were added to a 50 ml PBMC centrifuge tube SepMate™-50. The mixture was centrifuged at 1200 g for 10 minutes at room temperature. The supernatant was taken and then centrifuged at 300 g for 8 minutes. The cells were re-suspended in the RMPI 1640 medium containing 10% FBS and counted, and the number of PBMCs was adjusted to 3.33×10^6 cells/ml. 150 μl of the cell solution were added to the plate added with the compound, and incubated in an incubator at 37° C., in 5.0% CO2 for 24 hours.
The cell culture plate was placed in a centrifuge, and centrifuged at 1200 rpm for 10 minutes at room temperature. 150 μl of the supernatant were taken from each well. The reagents in the human IFN-α kit were first equilibrated to normal temperature. The anti-IFN-α-Eu^3+-Cryptate conjugate and the anti-IFN-α-d2-conjugate were formulated in the dark according to the kit instructions, and both of them were mixed well with the conjugate buffer at a ratio of 1:40. 16 μl of the supernatant obtained by centrifugation were then added to each well. 2 μl of anti-IFN-α-Eu^3+-Cryptate conjugate and anti-IFN-α-d2-conjugate formulated just now were then added to each well. The plate was shaken and mixed well, and incubated in the dark at room temperature for 3 hours.
The PHERAStar was read in the HTRF mode. The lowest compound concentration that stimulated cytokine levels of at least 3 times higher than the minimum detection limit was defined as the minimal effective concentration (MEC) value of the compound in the cytokine stimulation test.
The ability of the compounds of the present invention to stimulate the secretion of IFN-α from PBMC was determined by the above test, and the obtained MEC values are shown in Table 3.

CYP2D6 = CYP2D6 (Homo sapiens (Human), UniProt P10635); assay: Inhibition of the enzyme activity of CYP2D6 in human liver microsomes; assay type: in vitro ADME; settings: probe substrate dextromethorphan
Procedure: The effect of the compounds of the present invention on the enzyme activity of CYP2D6 in human liver microsomes was determined by the following experimental method:
(§3) 100 mM PBS buffer was formulated, which was then used to formulate 2.5 mg/ml microsome solution and 5 mM NADPH solution. The 5× concentration of the compound working solution was diluted with PBS gradient (150, 50, 15, 5, 1.5, 0.15, 0.015, 0 μM). The 5× concentration of quinidine working solution was diluted with PBS gradient (150, 50, 15, 5, 1.5, 0.15, 0.015, 0 μM). Dextromethorphan working solution was diluted with PBS to a concentration of 50 μM.
(§4) 20 μl of 2.5 mg/ml microsome solution, 20 μl of 50 μM testosterone working solution, 20 μl of MgCl2 solution and 20 μl of the compound working solution (150, 50, 15, 5, 1.5, 0.15, 0.015, 0 μM, different reaction systems for each concentration) were taken respectively and mixed well. For the positive control group, the compound was replaced with the same concentration of quinidine. The mixture together with 5 mM NADPH solution were pre-incubated at 37° C. for 5 minutes. After 5 minutes, 20 μl of NADPH were added to each well, the reaction was started and incubated for 30 minutes. All the incubated samples were present in duplicate. After 30 minutes, 250 μl of acetonitrile containing internal standard were added to all samples, mixed well, shaken at 800 rpm for 10 minutes, and then centrifuged at 3700 rpm for 10 minutes. 80 μl of the supernatant were taken and analyzed by LC-MS/MS.
The data were calculated by Graphpad Prism to obtain the IC50 values of the compounds on the metabolite site of CYP2D6.

human TLR8 = human TLR8 (Homo sapiens (Human), UniProt Q9NR97); assay: Agonistic activity on human TLR8 in HEK-Blue hTLR8 stably transfected cells; assay type: cell-based; settings: for EC50: OD 620 nm
Procedure: The activation effect of the compounds of the present invention on the hTLR8 protein expressed by the HEK-Blue™ hTLR8 stably transfected cells was determined by the following experimental method:
as §1, with “dilution. The compound was firstly diluted 20-fold with the medium, then 20 μl of the diluted compound were added to each well.” for “dilution.”
as §2, with “The” for “The above formulated compound was firstly diluted 20-fold with the medium, then 20 μl of the diluted compound were added to each well. The”, “hTLR8” for “hTLR7”
The activation effect of the compounds of the present invention on human TLR8 can be determined by the above test, and the obtained EC50 values are shown in Table 2.

CYP3A4 [1] = biological target: T1, CYP3A4 (Homo sapiens (Human), UniProt P08684); assay: Inhibition of the testosterone metabolite site of CYP3A4 in human liver microsomes; assay type: in vitro ADME; settings: probe substrate testosterone
Procedure: The effect of the compounds of the present invention on the enzyme activity of testosterone metabolite site of CYP3A4 in human liver microsomes was determined by the following experimental method:
as §3, with “ketoconazole” for “quinidine”
as §4, with “ketoconazole.” for “quinidine.”
The data were calculated by Graphpad Prism to obtain the IC50 values of the compounds on the testosterone metabolite site of CYP3A4.

CYP3A4 [2] = biological target: T1, CYP3A4; assay: Inhibition of the midazolam metabolite site of CYP3A4 in human liver microsomes; assay type: in vitro ADME; settings: probe substrate midazolam
Procedure: The effect of the compounds of the present invention on the enzyme activity of midazolam metabolite site of CYP3A4 in human liver microsomes was determined by the following experimental method:
as §3, with “ketoconazole” for “quinidine”
as §4, with “ketoconazole.” for “quinidine.”
The data were calculated by Graphpad Prism to obtain the IC50 values of the compounds on the midazolam metabolite site of CYP3A4.

Chain of human TLR7 (Q9NYK1 27-1049): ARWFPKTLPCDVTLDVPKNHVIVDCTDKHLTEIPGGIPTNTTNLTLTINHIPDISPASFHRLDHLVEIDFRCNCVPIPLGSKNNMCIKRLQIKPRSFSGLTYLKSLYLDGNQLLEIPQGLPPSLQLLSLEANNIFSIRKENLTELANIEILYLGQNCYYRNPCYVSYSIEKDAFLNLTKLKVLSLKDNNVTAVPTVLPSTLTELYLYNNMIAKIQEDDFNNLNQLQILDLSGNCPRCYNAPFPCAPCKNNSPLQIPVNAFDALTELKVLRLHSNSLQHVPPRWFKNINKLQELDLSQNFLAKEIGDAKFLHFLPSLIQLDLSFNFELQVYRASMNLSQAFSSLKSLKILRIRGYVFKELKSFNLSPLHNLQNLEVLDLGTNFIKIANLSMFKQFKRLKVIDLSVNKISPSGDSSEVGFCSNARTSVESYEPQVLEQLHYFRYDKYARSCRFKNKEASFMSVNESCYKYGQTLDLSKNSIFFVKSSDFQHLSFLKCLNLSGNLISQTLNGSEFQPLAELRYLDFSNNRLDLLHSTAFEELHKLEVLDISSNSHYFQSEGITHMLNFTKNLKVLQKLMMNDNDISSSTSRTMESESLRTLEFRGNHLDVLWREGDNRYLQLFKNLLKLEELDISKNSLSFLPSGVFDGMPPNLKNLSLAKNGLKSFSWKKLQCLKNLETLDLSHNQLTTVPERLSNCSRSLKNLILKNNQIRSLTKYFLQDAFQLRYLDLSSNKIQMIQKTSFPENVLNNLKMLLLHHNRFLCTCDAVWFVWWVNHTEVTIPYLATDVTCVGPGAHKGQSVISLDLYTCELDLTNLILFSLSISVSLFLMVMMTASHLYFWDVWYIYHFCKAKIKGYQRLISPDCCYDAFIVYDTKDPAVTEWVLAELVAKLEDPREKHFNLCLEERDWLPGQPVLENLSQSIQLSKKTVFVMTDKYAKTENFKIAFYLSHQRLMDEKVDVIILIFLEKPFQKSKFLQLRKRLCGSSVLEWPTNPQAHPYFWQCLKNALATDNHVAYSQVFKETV
Chain of human TLR8 (Q9NR97 27-1041): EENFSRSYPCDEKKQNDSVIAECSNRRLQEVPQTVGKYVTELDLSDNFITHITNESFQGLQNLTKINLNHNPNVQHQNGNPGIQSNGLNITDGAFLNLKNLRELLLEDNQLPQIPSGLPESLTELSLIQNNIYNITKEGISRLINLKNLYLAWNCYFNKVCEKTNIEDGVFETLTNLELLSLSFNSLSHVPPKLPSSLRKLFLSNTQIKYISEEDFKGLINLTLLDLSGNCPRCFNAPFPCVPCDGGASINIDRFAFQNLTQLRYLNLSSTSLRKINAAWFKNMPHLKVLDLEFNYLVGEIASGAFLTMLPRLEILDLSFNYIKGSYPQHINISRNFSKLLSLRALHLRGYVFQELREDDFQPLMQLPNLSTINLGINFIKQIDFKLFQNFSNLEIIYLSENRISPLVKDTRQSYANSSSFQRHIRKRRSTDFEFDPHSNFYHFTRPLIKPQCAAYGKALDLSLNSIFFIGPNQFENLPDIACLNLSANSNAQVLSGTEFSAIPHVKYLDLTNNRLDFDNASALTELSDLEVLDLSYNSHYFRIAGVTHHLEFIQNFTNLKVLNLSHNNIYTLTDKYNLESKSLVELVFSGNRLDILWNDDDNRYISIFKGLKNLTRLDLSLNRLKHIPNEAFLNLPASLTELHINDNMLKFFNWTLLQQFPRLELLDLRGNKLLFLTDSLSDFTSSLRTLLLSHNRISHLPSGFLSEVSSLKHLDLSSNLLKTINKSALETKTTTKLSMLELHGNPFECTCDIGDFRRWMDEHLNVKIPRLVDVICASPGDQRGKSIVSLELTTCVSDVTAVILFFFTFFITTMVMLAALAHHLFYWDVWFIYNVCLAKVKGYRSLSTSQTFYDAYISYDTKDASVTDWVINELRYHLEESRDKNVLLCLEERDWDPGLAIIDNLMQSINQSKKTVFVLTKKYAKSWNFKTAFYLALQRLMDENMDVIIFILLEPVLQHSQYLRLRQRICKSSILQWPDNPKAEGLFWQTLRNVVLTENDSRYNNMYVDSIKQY
Chain of CYP2D6 (P10635 whole entry): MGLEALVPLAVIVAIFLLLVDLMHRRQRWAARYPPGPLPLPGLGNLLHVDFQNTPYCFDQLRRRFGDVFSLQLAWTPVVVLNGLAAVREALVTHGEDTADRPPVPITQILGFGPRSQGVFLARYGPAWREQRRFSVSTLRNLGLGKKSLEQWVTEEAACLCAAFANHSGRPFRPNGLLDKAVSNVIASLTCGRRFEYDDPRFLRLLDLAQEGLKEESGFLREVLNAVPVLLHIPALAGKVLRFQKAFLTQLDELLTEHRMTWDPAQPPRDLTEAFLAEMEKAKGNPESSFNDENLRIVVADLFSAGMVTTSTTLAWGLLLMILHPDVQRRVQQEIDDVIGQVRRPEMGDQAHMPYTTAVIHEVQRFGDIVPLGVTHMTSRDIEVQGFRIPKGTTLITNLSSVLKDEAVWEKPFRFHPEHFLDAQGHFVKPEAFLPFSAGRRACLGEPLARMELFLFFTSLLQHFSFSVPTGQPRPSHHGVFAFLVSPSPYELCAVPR
T1 sequence (P08684 whole entry): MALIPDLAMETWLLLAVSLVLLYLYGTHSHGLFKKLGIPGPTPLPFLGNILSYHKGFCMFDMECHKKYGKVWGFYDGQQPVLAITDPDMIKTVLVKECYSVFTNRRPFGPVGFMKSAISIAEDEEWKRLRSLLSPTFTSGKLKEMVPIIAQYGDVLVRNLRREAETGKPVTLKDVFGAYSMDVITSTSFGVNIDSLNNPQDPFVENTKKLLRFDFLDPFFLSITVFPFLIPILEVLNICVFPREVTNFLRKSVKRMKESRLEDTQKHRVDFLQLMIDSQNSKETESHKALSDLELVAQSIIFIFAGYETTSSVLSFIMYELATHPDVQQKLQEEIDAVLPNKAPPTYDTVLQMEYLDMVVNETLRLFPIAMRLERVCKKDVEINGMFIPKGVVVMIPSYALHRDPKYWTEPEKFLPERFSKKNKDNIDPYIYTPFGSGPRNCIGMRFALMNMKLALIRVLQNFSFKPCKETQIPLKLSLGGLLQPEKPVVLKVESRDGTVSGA

SMILES | Emax (human TLR7) | MEC to stimulate the secretion of IFN-α from PBMC (PBMC) | IC50 (CYP2D6) | Emax (human TLR8) | EC50 (human TLR8) | IC50 (CYP3A4 [1]) | IC50 (CYP3A4 [2]) | EC50 (human TLR7)
CCCCOc1nc(N)c2cnn(Cc3ccc(CN4CCCC4)cc3)c2n1 [Example 1, 6-Butoxy-1-(4-(pyrrolidin-1-ylmethyl)benzyl)-1H-pyrazolo[3,4-d]pyrimidin-4-amine] | 100% | 6 nM | > 30 µM | 8% | > 30 µM | – | – | –
CCCCOc1nc(N)c2cnn(Cc3cccc(CN4CCC4)c3)c2n1 [Example 5, 1-(3-(Azetidin-1-ylmethyl)benzyl)-6-butoxy-1H-pyrazolo[3,4-d]pyrimidin-4-amine] | – | 41 nM | – | – | – | – | – | –
CCCCOc1nc(N)c2cnn(Cc3cccc(CN4CCCCC4)c3)c2n1 [Example 6, 6-Butoxy-1-(3-(piperidin-1-ylmethyl)benzyl)-1H-pyrazolo[3,4-d]pyrimidin-4-amine] | 91% | – | 10 µM | 35% | > 6 µM | 3 µM | 10 µM | 0.233 µM
COCC(C)Oc1nc(N)c2cnn(Cc3ccc(CN4CCCC4)cc3)c2n1 (stereo not shown) [Example 8, 6-((1-Methoxypropan-2-yl)oxy)-1-(4-(pyrrolidin-1-ylmethyl)benzyl)-1H-pyrazolo[3,4-d]pyrimidin-4-amine] | 104% | – | – | 2% | > 30 µM | – | – | 0.217 µM
CCCCOc1nc(N)c2cnn(Cc3ccc(CN4CCCC4)c(F)c3)c2n1 [Example 9, 6-Butoxy-1-(3-fluoro-4-(pyrrolidin-1-ylmethyl)benzyl)-1H-pyrazolo[3,4-d]pyrimidin-4-amine] | 96% | – | – | – | – | – | – | 0.128 µM
CCCCNc1nc(N)c2cnn(Cc3ccc(CN4CCCC4)cc3)c2n1 [Example 10, N^6-Butyl-1-(4-(pyrrolidin-1-ylmethyl)benzyl)-1H-pyrazolo[3,4-d]pyrimidine-4,6-diamine] | 79% | – | – | 0% | > 30 µM | – | – | 0.349 µM
CCCNC(=O)c1nc(N)c2cnn(Cc3ccc(CN4CCCC4)cc3)c2n1 [Example 11, 4-Amino-N-propyl-1-(4-(pyrrolidin-1-ylmethyl)benzyl)-1H-pyrazolo[3,4-d]pyrimidine-6-carboxamide] | 85% | – | – | 0% | > 30 µM | – | – | 0.335 µM
CCCCC(=O)c1nc(N)c2cnn(Cc3ccc(CN4CCCC4)cc3)c2n1 [Example 12] | 78% | – | 16 µM | 5% | > 30 µM | > 30 µM | 16 µM | 0.388 µM
